Data as given in BindingDB's records for doi:10.1021/acs.jmedchem.1c00818 (University of Picardy Jules Verne, 2021).

What was measured:
[1] = Inhibition of DC-SIGN (unknown origin) expressed in human Jurkat cells assessed as inhibition of EBOV-pseudotyped virus infection measured after 48 hrs by luciferase assay
[2] = Inhibition of full-length DC-SIGN (unknown origin) expressed in human monocyte derived dendritic cells assessed as inhibition of binding to recombinant HCMV gB using flow cytometry
[3] = Inhibition of DC-SIGN extracellular domain (unknown origin) binding to HIV gp120 by surface plasmon resonance analysis

| SMILES | IC50 [1] [µM] | IC50 [2] [µM] | IC50 [3] [µM] |
| --- | --- | --- | --- |
| COC(=O)CNC(=O)CN(Cc1cn(CCCOc2c3cc(C(C)(C)C)cc2Sc2cc(C(C)(C)C)cc(c2OCCCn2cc(CN(CC(=O)NCC(=O)OC)C(=O)CCCCCn4cc(CO[C@@H]5O[C@@H](C)[C@@H](O)[C@@H](O)[C@@H]5O)nn4)nn2)Sc2cc(C(C)(C)C)cc(c2OCCCn2cc(CN(CC(=O)NCC(=O)OC)C(=O)CCCCCn4cc(CO[C@@H]5O[C@@H](C)[C@@H](O)[C@@H](O)[C@@H]5O)nn4)nn2)Sc2cc(C(C)(C)C)cc(c2OCCCn2cc(CN(CC(=O)NCC(=O)OC)C(=O)CCCCCn4cc(CO[C@@H]5O[C@@H](C)[C@@H](O)[C@@H](O)[C@@H]5O)nn4)nn2)S3)nn1)C(=O)CCCCCn1cc(CO[C@@H]2O[C@@H](C)[C@@H](O)[C@@H](O)[C@@H]2O)nn1 | 0.602 | 1 | 17 |
| C[C@@H]1O[C@@H](OCc2cn(CCCCCC(=O)N(O)Cc3cn(CCCOc4c5cc(C(C)(C)C)cc4Cc4cc(C(C)(C)C)cc(c4OCCCn4cc(CN(O)C(=O)CCCCCn6cc(CO[C@@H]7O[C@@H](C)[C@@H](O)[C@@H](O)[C@@H]7O)nn6)nn4)Cc4cc(C(C)(C)C)cc(c4OCCCn4cc(CN(O)C(=O)CCCCCn6cc(CO[C@@H]7O[C@@H](C)[C@@H](O)[C@@H](O)[C@@H]7O)nn6)nn4)Cc4cc(C(C)(C)C)cc(c4OCCCn4cc(CN(O)C(=O)CCCCCn6cc(CO[C@@H]7O[C@@H](C)[C@@H](O)[C@@H](O)[C@@H]7O)nn6)nn4)C5)nn3)nn2)[C@@H](O)[C@H](O)[C@@H]1O | 0.289 | 0.188 | 26.8 |
| COC(=O)CNC(=O)CN(Cc1cn(CCCOc2c3cc(C(C)(C)C)cc2Sc2cc(C(C)(C)C)cc(c2OCCCn2cc(CN(CC(=O)NCC(=O)OC)C(=O)CCCCCn4cc(CO[C@H]5O[C@H](CO)[C@@H](O)[C@H](O)[C@@H]5O)nn4)nn2)Sc2cc(C(C)(C)C)cc(c2OCCCn2cc(CN(CC(=O)NCC(=O)OC)C(=O)CCCCCn4cc(CO[C@H]5O[C@H](CO)[C@@H](O)[C@H](O)[C@@H]5O)nn4)nn2)Sc2cc(C(C)(C)C)cc(c2OCCCn2cc(CN(CC(=O)NCC(=O)OC)C(=O)CCCCCn4cc(CO[C@H]5O[C@H](CO)[C@@H](O)[C@H](O)[C@@H]5O)nn4)nn2)S3)nn1)C(=O)CCCCCn1cc(CO[C@H]2O[C@H](CO)[C@@H](O)[C@H](O)[C@@H]2O)nn1 |  |  | 14.6 |
| COC(=O)CNC(=O)CN(Cc1cn(CCCOc2c3cc(C(C)(C)C)cc2Cc2cc(C(C)(C)C)cc(c2OCCCn2cc(CN(CC(=O)NCC(=O)OC)C(=O)CCCCCn4cc(CO[C@H]5O[C@H](CO)[C@@H](O)[C@H](O)[C@@H]5O)nn4)nn2)Cc2cc(C(C)(C)C)cc(c2OCCCn2cc(CN(CC(=O)NCC(=O)OC)C(=O)CCCCCn4cc(CO[C@H]5O[C@H](CO)[C@@H](O)[C@H](O)[C@@H]5O)nn4)nn2)Cc2cc(C(C)(C)C)cc(c2OCCCn2cc(CN(CC(=O)NCC(=O)OC)C(=O)CCCCCn4cc(CO[C@H]5O[C@H](CO)[C@@H](O)[C@H](O)[C@@H]5O)nn4)nn2)C3)nn1)C(=O)CCCCCn1cc(CO[C@H]2O[C@H](CO)[C@@H](O)[C@H](O)[C@@H]2O)nn1 |  |  | 45.3 |
| CC(C)(C)c1cc2c(OCCCn3cc(CN(O)C(=O)CCCCCn4cc(CO[C@H]5O[C@H](CO)[C@@H](O)[C@H](O)[C@@H]5O)nn4)nn3)c(c1)Cc1cc(C(C)(C)C)cc(c1OCCCn1cc(CN(O)C(=O)CCCCCn3cc(CO[C@H]4O[C@H](CO)[C@@H](O)[C@H](O)[C@@H]4O)nn3)nn1)Cc1cc(C(C)(C)C)cc(c1OCCCn1cc(CN(O)C(=O)CCCCCn3cc(CO[C@H]4O[C@H](CO)[C@@H](O)[C@H](O)[C@@H]4O)nn3)nn1)Cc1cc(C(C)(C)C)cc(c1OCCCn1cc(CN(O)C(=O)CCCCCn3cc(CO[C@H]4O[C@H](CO)[C@@H](O)[C@H](O)[C@@H]4O)nn3)nn1)C2 | 0.634 | 0.156 | 37.5 |
| COC(=O)CNC(=O)CN(Cc1cn(CCCOc2c3cc(C(C)(C)C)cc2Cc2cc(C(C)(C)C)cc(c2OCCCn2cc(CN(CC(=O)NCC(=O)OC)C(=O)CCCCCn4cc(CO[C@@H]5O[C@@H](C)[C@@H](O)[C@@H](O)[C@@H]5O)nn4)nn2)Cc2cc(C(C)(C)C)cc(c2OCCCn2cc(CN(CC(=O)NCC(=O)OC)C(=O)CCCCCn4cc(CO[C@@H]5O[C@@H](C)[C@@H](O)[C@@H](O)[C@@H]5O)nn4)nn2)Cc2cc(C(C)(C)C)cc(c2OCCCn2cc(CN(CC(=O)NCC(=O)OC)C(=O)CCCCCn4cc(CO[C@@H]5O[C@@H](C)[C@@H](O)[C@@H](O)[C@@H]5O)nn4)nn2)C3)nn1)C(=O)CCCCCn1cc(CO[C@@H]2O[C@@H](C)[C@@H](O)[C@@H](O)[C@@H]2O)nn1 | 0.218 | 0.777 | 26.5 |
| CO[C@H]1O[C@H](CO)[C@@H](O)[C@H](O)[C@@H]1O [methyl alpha-D-mannoside] | 1270 |  |  |
